Measured values as given in patent publication US20240300946A1, “EGFR INHIBITORS” (Blueprint Medicines Corporation, priority 2021, published 2024).
Where two headings read alike, the source gives them in different places.

Columns and labels:
[1] = tested on: phosphorylation of EGFR in NCI-H1975 cell line that harbors the EGFR L858R T790 M mutations; assay: NCI-H1975 pEGFR AlphaLISA assay; format: cell-based; conditions: p-EGFR (Tyr1068), 4-5 hours incubation, read-out: Ext pEGFR H1975 GMean IC50 (nM) Protocol: @ Pharmaron AlphaLISA (Num)
Experimental: Inhibitory effects of the compounds of the disclosure were evaluated in cellular assays that measure level of intracellular phosphorylation of EGFR in NCI-H1975 cell line that harbors the EGFR L858R T790 M mutations (ATCC, CRL-5908) using AlphaLISA sureFire ultra p-EGFR (Tyr1068) assay kit (PerkinElmer, ALSU-PEGFR-A50K). The NCI-H1975 cells were seeded at 12.5K/well in 22 μL into 384 well opti plate (PerkinElmer, 6007299) and adhering overnight at 37° C./5% CO2. On the next day, the test compounds and DMSO control were added into H1975 cell plate followed by incubation at 37° C./5% CO2 for 4-5 hours. The cells were then spin down in the 384-well plate and lysed with 10 μL of 1× AlphaLISA lysis buffer followed by shaking at 600 rpm for 10 minutes at room temperature. After that, 5 μL of an acceptor bead mix was added to each well followed by incubation at room temperature for 1.5-2 h in dark. Then 5 μL of a donor bead mix was added to each well followed by overnight incubation at room temperature in dark. On the next day, the plate was read at a compatible plate reader to obtain pEGFR signal. Percent of pEGFR inhibition was plotted against log concentration of compounds to generate IC50 values.

[2] = target: T1, EGFR (L858R T790 M C797S) (Homo sapiens, UniProt P00533, C797S/L858R/T790M); assay: Biochemical EGFR inhibition assay (Caliper mobility shift), LRTMCS mutant at 1 mM ATP; conditions: read-out: LRTMCS (PH) IC50 (nM) @ 1 mM ATP (Num)
T1 construct: purchased SignalChem E10-122VG
Experimental: Inhibitory effects of the compounds of the disclosure were measured in biochemical assays that measure the phosphorylation activity of EGFR enzyme phosphorylates 2.5 micromolar 5-FAM-[…]-CONH2 peptide substrate (FL-Peptide 22, PerkinElmer, 760366) in the presence of adenosine-5′-triphosphate (ATP) and varying concentrations of the test compound in 100 mM 2-[4-(2-hydroxyethyl)piperazin-1-yl]ethanesulfonic acid (HEPES), pH 7.5, 10 mM MgCl2, 0.015% Brij-35, 1 mM dithiothreitol (DTT), 1.0% dimethylsulfoxide (DMSO). Assays were performed at 1.0 mM ATP or at ATP Km of the EGFR enzymes. Reactions proceeded until between 10% to 20% total peptides were phosphorylated at room temperature (25° C.) and were terminated with 35 mM 2,2′,2″,2′″-(ethane-1,2-diyldinitrilo)tetraacetic acid (EDTA). Product was detected using the Caliper mobility shift detection method where the phosphorylated peptide (product) and substrate were electrophoretically separated and measured. Percent activity was plotted against log concentration of compound and points to generate an apparent IC50. The following enzyme forms of EGFR were examples that were used in these assays: • EGFR WT (SignalChem, E10-112G) • EGFR (L858R T790 M C797S) (SignalChem, E10-122VG) • EGFR (d746-750) T790 M C797S (SignalChem, E10-122UG) • EGFR L858R (SignalChem, E10-122BG) • EGFR (d746-750) (SignalChem, E10-122JG)

[3] = Homo sapiens, NCI-H1975, NCI-H1975 cells

T1 sequence (P00533 25-1210 T790M/C797S/L858R): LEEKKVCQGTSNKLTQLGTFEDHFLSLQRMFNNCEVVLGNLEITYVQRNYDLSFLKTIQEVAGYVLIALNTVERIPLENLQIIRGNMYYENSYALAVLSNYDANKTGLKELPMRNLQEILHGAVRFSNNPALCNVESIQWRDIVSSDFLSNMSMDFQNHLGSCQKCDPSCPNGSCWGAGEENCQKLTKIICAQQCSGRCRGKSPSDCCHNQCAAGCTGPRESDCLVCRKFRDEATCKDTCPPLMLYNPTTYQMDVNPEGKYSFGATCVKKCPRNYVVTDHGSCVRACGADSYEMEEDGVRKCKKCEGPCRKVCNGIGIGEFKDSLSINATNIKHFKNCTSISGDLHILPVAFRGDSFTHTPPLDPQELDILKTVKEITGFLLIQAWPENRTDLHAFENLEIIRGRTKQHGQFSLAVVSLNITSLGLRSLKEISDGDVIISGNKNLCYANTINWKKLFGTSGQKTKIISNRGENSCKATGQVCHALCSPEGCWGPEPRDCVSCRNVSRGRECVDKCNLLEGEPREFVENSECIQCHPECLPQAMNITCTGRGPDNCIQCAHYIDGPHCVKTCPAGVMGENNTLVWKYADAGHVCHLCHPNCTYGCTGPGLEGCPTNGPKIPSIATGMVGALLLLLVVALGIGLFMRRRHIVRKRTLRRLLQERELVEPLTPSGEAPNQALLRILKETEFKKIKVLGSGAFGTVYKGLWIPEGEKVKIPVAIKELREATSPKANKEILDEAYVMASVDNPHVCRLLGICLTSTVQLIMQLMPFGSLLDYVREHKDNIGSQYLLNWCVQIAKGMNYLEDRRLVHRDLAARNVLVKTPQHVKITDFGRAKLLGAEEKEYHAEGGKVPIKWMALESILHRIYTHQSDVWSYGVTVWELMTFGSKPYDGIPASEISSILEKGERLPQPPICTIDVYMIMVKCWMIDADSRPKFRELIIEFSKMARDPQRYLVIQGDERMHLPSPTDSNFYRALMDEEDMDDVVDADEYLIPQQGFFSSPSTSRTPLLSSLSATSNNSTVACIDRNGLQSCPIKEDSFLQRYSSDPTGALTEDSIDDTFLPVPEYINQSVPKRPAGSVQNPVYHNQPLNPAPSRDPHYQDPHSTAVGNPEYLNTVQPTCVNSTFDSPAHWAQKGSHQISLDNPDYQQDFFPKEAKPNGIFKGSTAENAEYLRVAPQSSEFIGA

| IC50 ([1]; NCI-H1975 cells) | IC50 [2] | IC50 [1, 3] | Structure (SMILES) |
| --- | --- | --- | --- |
| > 50 nM | ≤ 15 nM |  | C[C@H](CO)c1ccc(N2CC(CS(C)(=O)=O)C2)c2cnc(Nc3ccnc(-c4cnn(C)c4)n3)cc12 (single isomer, unassigned) [Example 19, (S)-2-(3-((2-(1-methyl-1H-pyrazol-4-yl)pyrimidin-4-yl)amino)-8-(3-((methylsulfonyl)methyl)azetidin-1-yl)isoquinolin-5-yl)propan-1-ol or (R)-2-(3-((2-(1-methyl-1H-pyrazol-4-yl)pyrimidin-4-yl)amino)-8-(3-((methylsulfonyl)methyl)azetidin-1-yl)isoquinolin-5-yl)propan-1-ol] |
|  | 30 to 100 nM | > 50 nM | CC(C)c1ccc(N2CC(CS(C)(=O)=O)C2)c2cnc(Nc3ccnc(C4CC(F)C4)n3)cc12 (stereo not drawn) [Example 26, N′-(2-(3-fluorocyclobutyl)pyrimidin-4-yl)-5-isopropyl-8-(3-((methylsulfonyl)methyl)azetidin-1-yl)isoquinolin-3-amine] |
|  | ≤ 15 nM | > 50 nM | C[C@H](CO)c1ccc(N2CC(CS(C)(=O)=O)C2)c2cnc(Nc3ccnc(-c4cnn(C)c4)n3)cc12 (single isomer, unassigned) [Example 18, (S)-2-(3-((2-(1-methyl-1H-pyrazol-4-yl)pyrimidin-4-yl)amino)-8-(3-((methylsulfonyl)methyl)azetidin-1-yl)isoquinolin-5-yl)propan-1-ol or (R)-2-(3-((2-(1-methyl-1H-pyrazol-4-yl)pyrimidin-4-yl)amino)-8-(3-((methylsulfonyl)methyl)azetidin-1-yl)isoquinolin-5-yl)propan-1-ol] |
|  | ≤ 15 nM | 10 to 20 nM | CC(C)c1cnc(N2CC(CS(C)(=O)=O)C2)c2cnc(Nc3ccnc(-c4cnn(C)c4)n3)cc12 [Example 2, 5-isopropyl-N-(2-(1-methyl-1H-pyrazol-4-yl)pyrimidin-4-yl)-8-(3-((methylsulfonyl)methyl)azetidin-1-yl)-2,7-naphthyridin-3-amine] |
|  | > 100 nM | > 50 nM | CC(C)c1ccc(N2CC(CS(C)(=O)=O)C2)c2cnc(Nc3ccnc([C@H]4C[C@@H]4C(F)F)n3)cc12 (single isomer, unassigned) [Example 16, N-(2-((1S,2S)-2-(difluoromethyl)cyclopropyl)pyrimidin-4-yl)-5-isopropyl-8-(3-((methylsulfonyl)methyl)azetidin-1-yl)isoquinolin-3-amine or N-(2-((1R,2R)-2-(difluoromethyl)cyclopropyl)pyrimidin-4-yl)-5-isopropyl-8-(3-((methylsulfonyl)methyl)azetidin-1-yl)isoquinolin-3-amine] |
| > 50 nM | > 100 nM |  | CC(C)c1ccc(N2CC(CS(C)(=O)=O)C2)c2cnc(Nc3ccnc([C@H]4C[C@@H]4C(F)F)n3)cc12 (single isomer, unassigned) [Example 17, N-(2-((1S,2S)-2-(difluoromethyl)cyclopropyl)pyrimidin-4-yl)-5-isopropyl-8-(3-((methylsulfonyl)methyl)azetidin-1-yl)isoquinolin-3-amine or N-(2-((1R,2R)-2-(difluoromethyl)cyclopropyl)pyrimidin-4-yl)-5-isopropyl-8-(3-((methylsulfonyl)methyl)azetidin-1-yl)isoquinolin-3-amine] |
|  | ≤ 15 nM | 10 to 20 nM | CCS(=O)(=O)CC1CN(c2ccc(C(C)C)c3cc(Nc4ccnc(-c5cnn(C)c5)n4)ncc23)C1 [Example 12, 8-(3-((ethylsulfonyl)methyl)azetidin-1-yl)-5-isopropyl-N-(2-(1-methyl-1H-pyrazol-4-yl)pyrimidin-4-yl)isoquinolin-3-amine] |
| > 50 nM | > 100 nM |  | Cc1ncc(-c2nccc(Nc3cc4c(C(C)C)ccc(N5C[C@H](CS(C)(=O)=O)[C@H]5C)c4cn3)n2)s1 (single isomer, unassigned) [Example 21, 5-isopropyl-8-((2S,3S)-2-methyl-3-((methylsulfonyl)methyl)azetidin-1-yl)-N-(2-(2-methylthiazol-5-yl)pyrimidin-4-yl)isoquinolin-3-amine or 5-isopropyl-8-((2S,3R)-2-menthyl-3-((methylsulfonyl)methyl)azetidin-1-yl)-N-(2-(2-methylthiazol-5-yl)pyrimidin-4-yl)isoquinolin-3-amine] |
|  | 15 to 20 nM | > 50 nM | CC(C)c1cnc(N2CC(CS(C)(=O)=O)C2)c2cnc(Nc3ccnc(C45CC(CO)(C4)C5)n3)cc12 [Example 4, (3-(4-((5-isopropyl-8-(3-((methylsulfonyl)methyl)azetidin-1-yl)-2,7-naphthyridin-3-yl)amino)pyrimidin-2-yl)bicyclo[1.1.1]pentan-1-yl)methanol] |
